According to publication PMC10470200 (The Journal of Biological Chemistry, 2023):

What was measured:
[1] = target: T1, cytochrome P450 3A4 (CYP3A4) (Homo sapiens, UniProt P08684, F219A); test: equilibrium spectral titration, Hill fit (S50; nH […]); type: binding
T1 construct: Δ3-22 CYP3A4

[2] = target: T2, cytochrome P450 3A4 (CYP3A4) (Homo sapiens, UniProt P08684); test: as above; type: binding
T2 construct: Δ3-22 CYP3A4
T2 sequence (P08684 23-503): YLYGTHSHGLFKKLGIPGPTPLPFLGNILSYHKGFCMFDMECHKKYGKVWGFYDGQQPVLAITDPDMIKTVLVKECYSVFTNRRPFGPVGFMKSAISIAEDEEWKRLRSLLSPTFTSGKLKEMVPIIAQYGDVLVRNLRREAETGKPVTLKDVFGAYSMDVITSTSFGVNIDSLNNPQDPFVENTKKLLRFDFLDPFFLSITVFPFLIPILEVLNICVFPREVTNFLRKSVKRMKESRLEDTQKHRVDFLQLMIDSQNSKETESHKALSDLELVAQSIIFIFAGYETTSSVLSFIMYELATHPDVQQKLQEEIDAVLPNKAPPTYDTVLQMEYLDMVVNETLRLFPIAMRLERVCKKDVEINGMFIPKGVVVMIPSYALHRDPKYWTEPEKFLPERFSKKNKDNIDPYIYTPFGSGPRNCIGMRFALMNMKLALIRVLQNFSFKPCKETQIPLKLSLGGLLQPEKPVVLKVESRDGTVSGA

T1 sequence (P08684 23-503 F219A): as the sequence (P08684 23-503) above, with F197A counted along it

CC(=O)[C@H]1CC[C@H]2[C@@H]3CCC4=CC(=O)CC[C@]4(C)[C@H]3CC[C@]12C [PRG, progesterone]
Kd [1]: 158 ± 9 µM
Kd [2]: 103 ± 3 µM
